Measurements taken from patent publication US8124831B2, “Transgenic mice carrying functional single nucleotide polymorphisms in brain-specific tryptophan hydroxylase” (Duke University, priority 2006, dated 2012).

Tested on: R439H Tph2 knock-in mice
Test: Tail suspension test after drug administration
Assay type: in vivo, mouse
Settings: HO Tph2 knock-in mice; 30 min following administration; fluoxetine 5 mg/kg, TDZD 10 mg/kg (i.p.); vs vehicle (FIG. 7)
Protocol: Tail suspension test: Mice were tested in a tail suspension apparatus (Med-Associates, St. Albans, Vt.) as described (Crowley et al., 2004, Pharmacol. Biochem. Behav. 78:269-274). All mice were weighed and tail-marked 24 hrs before testing. Animals were brought into the testing room 4 hrs before injections. Pilot studies were used to determine the optimal automated threshold settings for immobility by comparing scores rated manually with scores tabulated simultaneously by the apparatus. Behavior was scored as time spent in immobility (sec) for the total period of the test.
Administration of anti-depressants or glycogen synthase kinase 3 inhibitors alleviates behavioral differences. Fluoxetine (Tocris Cookson Inc., Ellisville, Mo.) was dissolved in distilled water. Thiadiazolidinone (TDZD) (Calbiochem, Cambridge, Mass.) was injected (i.p.) following suspension in a minimal amount of Tween and diluted to volume with distilled water as previously described (Beaulieu et al., 2004, Proc. Natl Acad. Sci. USA 101:5099-5104). Corresponding vehicle solutions were injected in control animals. Mice were treated with vehicle or drug 30 min before testing. Behavioral testing was performed as described above.

| Compound | immobility times in the tail suspension test |
| --- | --- |
| CNCCC(Oc1ccc(C(F)(F)F)cc1)c1ccccc1 (centres unmarked) [fluoxetine] | comparable reduction of immobility times |
| Cn1sc(=O)n(Cc2ccccc2)c1=O [TDZD, thiadiazolidinone] | comparable reduction of immobility times |
